The source made the active and inactive calls. No rule for the calls is given here.

This assay can be described thus: concentration series on yeast TOR reporter LAP4 – cell-based, MLPCN hits, flow cytometry, dose response (AID 2745).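 Also: yeast exposed to compound for three hours at 30 degrees.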 Particulars: S. cerevisiae LAP4-GFP reporter, flow cytometry fluorescence; at 33 µM (top of the series).
Take `CC(=O)OC[C@]12CC[C@H]3[C@@](C)(CC[C@H]4C(C)(C)CCC[C@]34C)[C@@H]1C[C@H](C1=CC(=O)O[C@@H]1OC(C)=O)O2`: the LAP4-GFP fluorescence (kMESF) is 13.6 kMESF (inactive).
As to `CCC(=O)Oc1oc(-c2ccccc2)nc1C=Nc1ccccc1OC`, the LAP4-GFP fluorescence (kMESF) was 4.64 kMESF (inactive).
The same measure for `Cc1ccccc1[C@@]1(C)ON(c2ccccc2C(F)(F)F)C1=O`: 5.8 kMESF (inactive); for `O=C(Nc1cccc(C(F)(F)F)c1)Oc1ccc(Cl)c2cccnc12`: 12.8 kMESF (inactive); for `Cc1ccc(/C=c2\sc3nc(-c4cccs4)nn3c2=O)o1`: 7.32 kMESF (inactive).
Regarding `C#CCOCCOCCOCCNc1nc(N2CCN(C(=O)CCCCCCCCCCNC(=O)[C@H](CCCCN)n3cc(CCO)nn3)CC2)nc(N2CCN(C(=O)CCCCCCCCCCNC(=O)[C@H](CCCN=C(N)N)n3cc(C[C@@H](C)CC)nn3)CC2)n1`, the LAP4-GFP fluorescence (kMESF) is 6.17 kMESF (inactive).
The same measure for `COc1ccc(OCC(=O)NNC(=S)NC(=O)C2CCCCC2)cc1`: 14.4 kMESF (inactive).
With `O=C(Oc1oc(-c2ccco2)nc1C=Nc1ccccc1)c1ccoc1` the figure was 8.01 kMESF (inactive); with `COc1cc(C=C2C(=O)c3ccccc3C2=O)cc(OC)c1`, 4.28 kMESF (inactive); with `O=C1N(c2ccccc2C(F)(F)F)OC1(Cc1ccccc1)c1ccccc1` (configuration not stated), 4.48 kMESF (inactive).
`CC(=O)NN1C(=O)/C(=C/c2ccc(Br)o2)SC1=S`: the LAP4-GFP fluorescence (kMESF) was 2.52 kMESF (inactive).
`COc1cccc(/C=C2\SC(=S)N(CCCC(=O)Nc3ccc(C(=O)O)cc3)C2=O)c1`: the LAP4-GFP fluorescence (kMESF) is 3.71 kMESF (inactive).
Regarding `Cc1cc(Br)c2c(c1)/C(=C/C(=O)c1cccs1)C(=O)N2`, the LAP4-GFP fluorescence (kMESF) was 6.22 kMESF (inactive).
In the case of `O=C(OCn1ncc(Br)c(Br)c1=O)c1ccccc1Cl`, the LAP4-GFP fluorescence (kMESF) is 10.5 kMESF (inactive).
`O=C1N(c2ccccc2C(F)(F)F)O[C@@]1(c1ccccc1)C1CCCC1`: the LAP4-GFP fluorescence (kMESF) is 2.93 kMESF (inactive).
`COc1ccccc1N1C(=O)c2cccc3c(C(=O)O)ccc(c23)C1=O`: the LAP4-GFP fluorescence (kMESF) was 6.85 kMESF (inactive).
With `Cc1ccc(N2C(=O)C(Cl)=C(Nc3c(C)n(C)n(-c4ccccc4)c3=O)C2=O)cc1` the figure was 2.87 kMESF (inactive); with `C[C@H]1C[C@@H](C)C(=O)[C@@H]([C@H](O)CC2CC(=O)NC(=O)C2)C1`, 7.12 kMESF (inactive).
Take `CC1=C/C(=N\OS(=O)(=O)c2ccccc2)C(C)=CC1=O`: the LAP4-GFP fluorescence (kMESF) is 4.1 kMESF (inactive).
As to `COc1ccc([C@]2(C(C)C)ON(c3ccccc3C(F)(F)F)C2=O)cc1`, the LAP4-GFP fluorescence (kMESF) was 4.65 kMESF (inactive).
Consider `O=C(CSC1=NS(=O)(=O)c2ccccc21)Nc1ccccc1`, for which the LAP4-GFP fluorescence (kMESF) was 7.82 kMESF (inactive).
Turning to `O=C(Nc1nnc(-c2ccc3c(c2)CCCC3)o1)c1ccc(Cl)cc1Cl`, the LAP4-GFP fluorescence (kMESF) was 5.77 kMESF (inactive).
As for `[O-][n+]1cccc2c(Br)cc(Br)c(O)c21`, the LAP4-GFP fluorescence (kMESF) was 12.9 kMESF (inactive).
Regarding `Oc1c(CN2CCCCC2)cc(Br)c2cccnc12`, the LAP4-GFP fluorescence (kMESF) was 16 kMESF (inactive).
Take `COc1cc(/C=C/c2ccc3c(Br)cc(Br)c(O)c3n2)ccc1O`: the LAP4-GFP fluorescence (kMESF) was 11.7 kMESF (inactive).
Consider `COc1cc(N=c2ssnc2Cl)cc(OC)c1`, for which the LAP4-GFP fluorescence (kMESF) was 11.3 kMESF (inactive).
For `CC(C)(C)C(=O)NC(=S)NNC(=O)c1sc2ccccc2c1Cl`, the LAP4-GFP fluorescence (kMESF) is 8.89 kMESF (inactive).
For `CCN(CC)c1ccc2cc(-c3nc4ccccc4[nH]3)c(=O)oc2c1`, the LAP4-GFP fluorescence (kMESF) was 3.03 kMESF (inactive).
Regarding `O=C1C=CC(=O)N1c1ccc(Sc2ccc([N+](=O)[O-])cc2)cc1`, the LAP4-GFP fluorescence (kMESF) is 5.47 kMESF (inactive).
Take `CC[C@H](C)/C=C(C)/C=C/C1=CC2=C(Cl)C(=O)[C@@](C)(OC(C)=O)C(=O)C2=CO1`: the LAP4-GFP fluorescence (kMESF) is 0.86 kMESF (inactive).
As to `CC(C)(C)C1C/C(=C/c2ccccn2)C(=O)/C(=C/c2ccccn2)C1` (configuration not stated), the LAP4-GFP fluorescence (kMESF) was 4.25 kMESF (inactive).
Take `COc1cccc(N=Cc2nc(-c3ccccc3)oc2OC(C)=O)c1`: the LAP4-GFP fluorescence (kMESF) is 12.8 kMESF (inactive).
Turning to `CC(=O)CSc1ncnc2c1cnn2-c1ccccc1`, the LAP4-GFP fluorescence (kMESF) was 3.61 kMESF (inactive).
With `CCN(CC(=O)NC(C)(C)C)C(=O)COc1c(Cl)cc(Cl)c2ccc(C)nc12` the figure was 11.7 kMESF (inactive).
With `COc1ccc(N2C(=O)CC(Sc3ncn[nH]3)C2=O)c(OC)c1` (configuration not stated), the LAP4-GFP fluorescence (kMESF) was 13.7 kMESF (inactive).
As to `O=c1oc(/C=C/c2ccc([N+](=O)[O-])s2)nc2ccccc12`, the LAP4-GFP fluorescence (kMESF) is 12.6 kMESF (inactive).
For `O=C(O)c1ccccc1SC1CC(=O)N(c2ccc3c(c2)OCO3)C1=O` (configuration not stated), the LAP4-GFP fluorescence (kMESF) was 5.3 kMESF (inactive).
Take `O=C(Nc1nnc(-c2ccc(F)cc2)o1)c1cc(Cl)sc1Cl`: the LAP4-GFP fluorescence (kMESF) was 6.71 kMESF (inactive).
In the case of `COc1cc(NC(=O)c2ccccc2[N+](=O)[O-])ccc1NC(=O)c1cc2ccccc2o1`, the LAP4-GFP fluorescence (kMESF) is 3.31 kMESF (inactive).
The same measure for `Cc1ccc(N=c2ssnc2Cl)cc1`: 10.6 kMESF (inactive).
In the case of `CCN(CC)C(=O)Oc1ccnc2cc(Cl)ccc12`, the LAP4-GFP fluorescence (kMESF) was 7.62 kMESF (inactive).
With `CCn1c(/C=C/c2ccc([N+](=O)[O-])o2)nc2ccccc2c1=O` the figure was -69.5 kMESF (inactive); with `CCC(=O)Nc1ccc(NC(=O)c2cc3ccccc3o2)c(OC)c1`, 3.41 kMESF (inactive).
In the case of `O=[N+]([O-])c1cc(CN2CCN(c3cccc(C(F)(F)F)c3)CC2)c2cccnc2c1O`, the LAP4-GFP fluorescence (kMESF) was 7.46 kMESF (inactive).
Take `C[C@@H]1C[C@@H]([C@H](O)CC2CC(=O)NC(=O)C2)C(=O)[C@@H](C)C1`: the LAP4-GFP fluorescence (kMESF) is 6.31 kMESF (inactive).
With `Cc1cc(C)nc(S/C=C/C(=O)c2ccccc2)n1`, the LAP4-GFP fluorescence (kMESF) was 11 kMESF (inactive).
On to `Cc1ccc(NC(=O)c2cc(N3C(=O)C=CC3=O)ccc2N2CCOCC2)cc1Cl`, for which the LAP4-GFP fluorescence (kMESF) was 10.5 kMESF (inactive).
`O=C(Oc1oc(-c2ccco2)nc1C=Nc1ccccc1)c1ccco1`: the LAP4-GFP fluorescence (kMESF) was 23.7 kMESF (inactive).
In the case of `O=C1c2cccc3c([N+](=O)[O-])ccc(c23)C(=O)N1c1ccccn1`, the LAP4-GFP fluorescence (kMESF) was 7.78 kMESF (inactive).
Take `N/C(=N\OC(=O)c1cc(Br)ccc1Cl)c1ccccn1`: the LAP4-GFP fluorescence (kMESF) was 12.2 kMESF (inactive).
As to `Cc1ccc(S(=O)(=O)N2CCCC2C(=O)NCc2ccncc2)cc1` (configuration not stated), the LAP4-GFP fluorescence (kMESF) was 4.58 kMESF (inactive).
In the case of `CC(=O)Oc1ccc(N2C(=O)C3C4C=CC(O4)C3C2=O)cc1` (configuration not stated), the LAP4-GFP fluorescence (kMESF) is 6.57 kMESF (inactive).
With `N#Cc1ccc(N=c2ssnc2Cl)cc1` the figure was 9.41 kMESF (inactive); with `CC(=O)Nc1ncnc2c1c(-c1ccc(Cl)cc1)nn2C(C)(C)C`, 5.09 kMESF (inactive).
With `CC(c1ccccc1)N1C(=O)/C(=C/c2ccncc2)SC1=S` (configuration not stated) the figure was 11.3 kMESF (inactive); with `CC(Oc1cc2oc(=O)c3c(c2cc1Cl)CCC3)C(=O)NCCN1CCOCC1` (configuration not stated), 2.43 kMESF (inactive).
As for `CN(C)c1ccc(/C=C/c2cc[n+](C)cc2)cc1`, the LAP4-GFP fluorescence (kMESF) was 1.33 kMESF (inactive).
For the compound `CC(C)(C)c1cc(C(c2cccnc2)N2CCN(CCO)CC2)cc(C(C)(C)C)c1O` (configuration not stated), the LAP4-GFP fluorescence (kMESF) is 7.26 kMESF (inactive).
`COc1ccc(C(=O)NC(=S)NNC(=O)CCc2ccccc2)cc1`: the LAP4-GFP fluorescence (kMESF) was 5.9 kMESF (inactive).
As for `COc1cccc2c(=O)c(C(=O)NCc3cccs3)c[nH]c12`, the LAP4-GFP fluorescence (kMESF) is 2.13 kMESF (inactive).
With `COc1ccccc1NC1=C(Cl)C(=O)N(c2ccccc2)C1=O` the figure was 2.98 kMESF (inactive).
As for `Cc1ccccc1N1C(=O)C(Cl)=C(N2CCN(c3ccccc3)CC2)C1=O`, the LAP4-GFP fluorescence (kMESF) is 3.41 kMESF (inactive).
Consider `Nc1nc(N)c2nc(CNc3ccc(C(=O)NC(CCC(=O)O)C(=O)O)cc3)cnc2n1` (configuration not stated), for which the LAP4-GFP fluorescence (kMESF) is 3.13 kMESF (inactive).
In the case of `O=C(COc1c(Br)cc(Br)c2cccnc12)N1CCc2ccccc2C1`, the LAP4-GFP fluorescence (kMESF) was 12.3 kMESF (inactive).
As for `COc1cc(/C=C2\CC/C(=C\c3cc(OC)c(O)c(OC)c3)C2=O)cc(OC)c1O`, the LAP4-GFP fluorescence (kMESF) is 2.53 kMESF (inactive).
Take `O=C(/C=C/c1ccccc1Cl)c1ccccc(=O)c1O`: the LAP4-GFP fluorescence (kMESF) was -5.15 kMESF (inactive).
With `O=C(O)c1ccc2c(c1)C(=O)/C(=C/c1ccccc1)C2=O` the figure was 3.53 kMESF (inactive); with `Cc1ccc(-c2nc(N)c3c(-c4ccc(C)cc4)nn(C(C)(C)C)c3n2)cc1`, 3.37 kMESF (inactive).
As to `Oc1cc(-c2ccc(N3CCCCC3)nc2)cc2cccnc12`, the LAP4-GFP fluorescence (kMESF) was 4.15 kMESF (inactive).
On to `CCc1nc2ccccc2c(=O)n1NC(=O)c1c(O)c2cccc3c2n(c1=O)CCC3`, for which the LAP4-GFP fluorescence (kMESF) was 3.04 kMESF (inactive).
For `O=C1c2sc3nc4ccccc4n3c2C(=O)N1c1ccccc1Cl`, the LAP4-GFP fluorescence (kMESF) is 3.64 kMESF (inactive).
Take `C=CCN1C(=O)/C(=C/c2ccc(-c3ccc(F)cc3)o2)SC1=S`: the LAP4-GFP fluorescence (kMESF) is 15 kMESF (inactive).
On to `O=C(Nc1ccc(O)cc1)C1CCCN1S(=O)(=O)c1ccc(F)cc1` (configuration not stated), for which the LAP4-GFP fluorescence (kMESF) is 3.13 kMESF (inactive).
The same measure for `CCCOc1ccc(C(=O)NNC(=S)NC(=O)c2ccccc2)cc1`: 8.22 kMESF (inactive); for `Cc1ccc(N2C(=O)CC(Sc3ncn[nH]3)C2=O)cc1C` (configuration not stated): 7.56 kMESF (inactive).
Turning to `Cc1ccc2[nH]c(C)c(/C=C/c3cc[n+](C)cc3)c2c1`, the LAP4-GFP fluorescence (kMESF) was 8.71 kMESF (inactive).
Consider `O=C(O)C1Sc2[nH]c(=O)sc2C2c3cc(Br)ccc3OC(=O)C12` (configuration not stated), for which the LAP4-GFP fluorescence (kMESF) was 5.82 kMESF (inactive).
